In patent US7678918B2, “Intermediates for imidazonaphthyridines” (3M Innovative Properties Company, priority 1997, dated 2010):

Columns and labels:
IFN = experiment: Cytokine Induction in Human Cells: interferon (IFN) secreted by PBMCs, A549/encephalomyocarditis bioassay; format: cell-based; settings: 18 to 24 hours; note: call rule not given here
How it was run: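 Human PBMCs from healthy donors at 1.5-2×10^6 cells/mL in RPMI with 10% FBS, exposed to compounds (typically 0.1 to 100 μM, ≤1% DMSO) for 18 to 24 h at 37° C. Secreted IFN measured by A549/encephalomyocarditis virus cytopathic-effect bioassay, in alpha reference units/mL against NIH human leukocyte IFN standard.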

TNF = experiment: Cytokine Induction in Human Cells: tumor necrosis factor (TNF) secreted by PBMCs, ELISA; format: cell-based; settings: 18 to 24 hours; note: call rule not given here
How it was run: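 Human donor PBMCs at 1.5-2×10^6 cells/mL in RPMI with 10% FBS were exposed to compound, generally at 0.1 to 100 μM (≤1% DMSO final), for 18 to 24 h at 37 °C. Secreted TNF in supernatant was measured by ELISA and reported as pg/mL.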

Compound | melting point | IFN induction (IFN; Dose Concentration 0.1 μM) | IFN induction (IFN; Dose Concentration 1.0 μM) | IFN induction (IFN; Dose Concentration 10.0 μM) | IFN induction (IFN; Dose Concentration 100.0 μM) | TNF induction (TNF; Dose Concentration 0.1 μM) | TNF induction (TNF; Dose Concentration 1.0 μM) | TNF induction (TNF; Dose Concentration 10.0 μM) | TNF induction (TNF; Dose Concentration 100.0 μM)
CCCCc1nc2c(N)nc3cccnc3c2n1CCCCNC(=O)c1ccc(C(OCCN(C)C)c2ccccc2)cc1 (centres unmarked) [Example 112, N^1-[4-(4-Amino-2-butyl-1H-imidazo[4,5-c][1,5]naphthyridin-1-yl)butyl]-4-{[2-(dimethylamino)ethoxy](phenyl)methyl}benzamide] | 105 to 108 °C | + | + | + | ± | + | + | − | −
CCCCc1nc2c(N)nc3cccnc3c2n1CCNC(=O)c1cccc(O)n1 [Example 99, N-[2-(4-Amino-2-butyl-1H-imidazo[4,5-c][1,5]naphthyridin-1-yl)ethyl]-6-hydroxy-2-pyridinecarboxamide] | 258 to 260 °C | − | − | + | + | − | − | + | +
CCCCc1nc2c(N)nc3cccnc3c2n1CC(C)(C)O [Example 62, 1,1-Dimethyl-2-(4-amino-2-butyl[1,5]napthyridin-1-yl)ethanol] | 177 to 179 °C | + | + | + | + | + | + | + | +
CCCCc1nc2c(N)nc3cccnc3c2n1CCCCNC(=O)CSc1ncccn1 [Example 109, N^1-[4-(4-Amino-2-butyl-1H-imidazo[4,5-c][1,5]naphthyridin-1-yl)butyl]-2-(2-pyrimidinylsulfanyl)acetamide] | 156 to 160 °C (dec.) | + | + | + | + | − | ± | + | +
CCCCc1nc2c(N)nc3cccnc3c2n1CCCCNC(=O)OC(C)(C)C [Example 45, 1,1-Dimethylethyl N-[4-(4-Amino-2-butyl-1H-imidazo[4,5-c][1,5]naphthyridin-1-yl)butyl]carbamate] | 148.5 to 149.5 °C | + | + | + | − | − | + | + | −
CCCCc1nc2c(N)nc3cccnc3c2n1CCNC(=O)Cn1cc(C)c(=O)[nH]c1=O [Example 114, N^1-[4-(4-Amino-2-butyl-1H-imidazo[4,5-c][1,5]naphthyridin-1-yl)ethyl]-2-(5-methyl-2,4-dioxo-1,2,3,4-tetrahydro-1-pyrimidinyl)acetamide] | 241 to 242 °C | − | − | + | + | − | − | + | +
CCCCc1nc2c(N)nc3cccnc3c2n1CCNC(=O)CCCCCC1NC(=O)NC1C (centres unmarked) [Example 115, N^1-[4-(4-Amino-2-butyl-1H-imidazo[4,5-c][1,5]naphthyridin-1-yl)ethyl]-6-(5-methyl-2-oxo-4-imidazolidinyl)hexamide] | 184 to 186 °C | − | − | + | + | − | − | + | +
CCCCc1nc2c(N)nc3cccnc3c2n1CCNC(=O)C1CCC(=O)O1 (centres unmarked) [Example 97, N-[2-(4-Amino-2-butyl-1H-imidazo[4,5-c][1,5]naphthyridin-1-yl)ethyl]-5-oxotetrahydro-2-furancarboxamide] | 153 to 154 °C | − | − | + | + | − | − | + | +
CC(C)(O)Cn1c(Cc2ccccc2)nc2c(N)nc3cccnc3c21 [Example 65, 1,1-Dimethyl-2-(4-amino-2-phenylmethyl[1,5]napthyridin-1-yl)ethanol] | 211 to 213 °C | + | + | + | + | − | + | + | +
CCCCc1nc2c(N)nc3cccnc3c2n1CCNC(=O)c1cc(C(C)(C)C)c(O)c(C(C)(C)C)c1 [Example 95, N^1-[2-(4-amino-2-butyl-1H-imidazo[4,5-c][1,5]naphthyridin-1-yl)ethyl]-3,5-di-(1,1-dimethylethyl)-4-hydroxybenzamide] | 248 to 250 °C | ± | + | + | + | − | − | + | +
CCCCc1nc2c(N)nc3cccnc3c2n1CCNC(=O)C1CCCCC1 [Example 94, N^1-[2-(4-Amino-2-butyl-1H-imidazo[4,5-c][1,5]naphthyridin-1-yl)ethyl]-1-cyclohexanecarboxamide] | 188 to 190 °C | − | + | + | + | − | + | + | +
CCOCc1nc2c(N)nc3cccnc3c2n1Cc1ccccc1 [Example 70, 2-Ethoxymethyl-1-phenylmethyl-1H-imidazo[4,5-c][1,5]naphthyridin-4-amine] | 173 to 174 °C | + | + | + | − | − | + | + | −
CCCCc1nc2c(N)nc3cccnc3c2n1CCOc1ccccc1 [Example 85, 2-Butyl-1-(2-phenoxyethyl)-1H-imidazo[4,5-c][1,5]naphthyridin-4-amine] | 159 to 159.2 °C | + | + | + | − | − | + | + | −
CCCCc1nc2c(N)nc3cccnc3c2n1CCCCN [Example 46, 4-(4-Amino-2-butyl-1H-imidazo[4,5-c][1,5]naphthyridin-1-yl)butaneamine] | 212 to 213 °C | + | + | + |  | + | + | + | +
CCCCc1nc2c(N)nc3cccnc3c2n1CCCOC(C)C [Example 75, 2-Butyl-1-(3-isopropoxypropyl)-1H-imidazo[4,5-c][1,5]naphthyridine-4-amine] | 174 to 175 °C | − | + | + | + | − | − | + | −
CCCCc1nc2c(N)nc3cccnc3c2n1CCNC(=O)CC(C)CCC=C(C)C (centres unmarked) [Example 100, N^1-[2-(4-Amino-2-butyl-1H-imidazo[4,5-c][1,5]naphthyridin-1-yl)ethyl]-3,7-dimethyl-6-octenamide] | 163 to 164 °C | − | − | + | + | − | − | + | +
CCCCc1nc2c(N)nc3cccnc3c2n1CCNC(C)=O [Example 92, N^1-[2-(4-Amino-2-butyl-1H-imidazo[4,5-c][1,5]naphthyridin-1-yl)ethyl]acetamide] | 228 to 230 °C | ± | + | + | + | − | + | + | +
NCCCCn1cnc2c(N)nc3cccnc3c21 [Example 111, 4-(4-amino-1H-imidazo[4,5-c][1,5]naphthyridin-1-yl)butaneamine] | 161 to 163 °C | − | − | + | + | − | − | + | +
CCCCc1nc2c(N)nc3cccnc3c2n1CCCCNC(=O)CSc1ccncc1 [Example 110, N^1-[4-(4-Amino-2-butyl-1H-imidazo[4,5-c][1,5]naphthyridin-1-yl)butyl]-2-(4-pyridylsulfanyl)acetamide] | 127.5 to 129 °C | + | + | + | + | − | + | + | +
